Details of data set [1]: method as in PMID 17210465. Particulars: ref [31]; cited from earlier work.
In data set [2] the target is T1, Aβ(1–42) aggregates (Homo sapiens, UniProt P05067).
T1 construct: Aβ(1–42) was purchased from the Peptide Institute (Osaka, Japan); purchased Peptide Institute (Osaka, Japan)
The experiment in a line: In vitro binding assay with Aβ(1–42) aggregates, competition with [125I]IMPY. The following applies: mean ± SEM of three independent determinations; Cheng-Prusoff. On the procedure:
Aggregation was carried out by gently dissolving the peptide (0.25 mg/mL) in a buffer solution (pH 7.4) containing 10 mM sodium phosphate and 1 mM EDTA. […] The mixture was then filtered through Whatman GF/B filters using a Brandel M-24 cell harvester, and the radioactivity of the filters containing the bound ^125I ligand was measured in a γ counter. Values for the half-maximal inhibitory concentration (IC50) were determined from displacement curves of three independent experiments using GraphPad Prism 5.0, and those for the inhibition constant (Ki) were calculated using the Cheng-Prusoff equation [26]: […]

Data set [3] is described as follows: Biodistribution in normal mice. It counts as in vivo, ddY mice. Particulars: for time of peak brain uptake: postinjection. On the procedure:
While under anesthesia with 2% isoflurane, ddY mice were injected directly into a tail vein with 100 µL of 10% EtOH containing ^125I-labeled pyridyl benzofuran derivatives (37 kBq). The mice (male, n = 5 for each time point) were sacrificed at 2, 10, 30, and 60 min postinjection. The organs of interest were removed and weighed, and radioactivity was measured with an automatic gamma counter (COBRAII; Packard). Percentage dose per organ was calculated by comparing the tissue counts to suitably diluted aliquots of the injected material. The %dose/g of samples was calculated by comparing the sample counts with the count of the diluted initial dose.

Data set [4] relates to Aβ plaques. The experiment in a line: In vitro autoradiography using human AD brain sections. It counts as binding. The following applies: postmortem human AD brain sections, 1 h at room temperature. How it is done: Postmortem brain tissues from an anonymous autopsy-confirmed case of AD (person) were obtained from the Graduate School of Medicine, Kyoto University. Six-micrometer-thick serial sections of paraffin-embedded blocks were used for in vitro autoradiography. The sections were incubated with ^125I-labeled tracers (444 kBq/50 µL) for 1 h at room temperature, then dipped in saturated Li2CO3 in 40% EtOH (two 2-min washes), washed with 40% EtOH (one 2-min wash), and rinsed with water for 30 s. After drying, the ^125I-labeled sections were exposed to a BAS imaging plate (Fuji Film) overnight. Autoradiographic images were obtained using a BAS5000 scanner system (Fuji Film). After autoradiographic examination, the same sections were immunostained using an amyloid β-protein immunohistochemical staining kit (Wako Pure Chemical Industries, Ltd.).

The nature of data set [5]: In vitro stability in mouse plasma. It counts as in vitro ADME. The following applies: incubation 1 h at 37°C, RP-HPLC. On the procedure:
[^125I]8 (11 kBq, […]) was added to the mouse plasma ([…]), and the plasma samples were incubated at 37°C for 1 h. After incubation, plasma samples were mixed with equal volumes of acetonitrile followed by centrifugation at 4,500 rpm for 10 min to remove the denatured proteins. The supernatant was filtrated using a 0.45 µm filter (Millipore; Billerica, MA, USA). Then, the filtrate was analyzed by RP-HPLC.

Data set [6] is described as follows: In vivo stability in normal mice (intact form in plasma by RP-HPLC). The arrangement: species or system ddY mice. Particulars: 30 min postinjection, i.v. How it is done:
[^125I]8 (0.11 MBq, 100 µL) was injected into the tail vein of ddY mice. The mice were sacrificed at 2, 10, and 30 min after the injection (male, n = 3 for each time point). The blood samples were centrifuged at 3,500 rpm for 10 min to separate plasma. Plasma samples were mixed with equal volumes of acetonitrile followed by centrifugation at 4,500 rpm for 10 min to remove the denatured proteins. The supernatant was filtrated using 0.45 µm filter (Millipore; Billerica, MA, USA). Then, the filtrate was analyzed by RP-HPLC.

Data set [7] deals with T2, Aβ plaques (Homo sapiens, UniProt P05067). The experiment in a line: Ex vivo autoradiography of transgenic mouse brain. The following applies: brains of Tg2576 mice after SPECT/CT; not in the wild-type control. An excerpt:
The animals were killed by decapitation after the SPECT analysis. Brains were immediately removed and frozen in a dry ice/hexane bath. Sections of 20 µm were cut and exposed to a BAS imaging plate (Fuji Film, Tokyo, Japan) overnight. Ex vivo film autoradiograms were thus obtained. After autoradiographic examination, the same sections were stained by thioflavin-S to confirm the presence of Aβ plaques. For staining with thioflavin-S, sections were immersed in a 0.125% thioflavin-S solution containing 50% EtOH for 5 min and washed in 50% EtOH. After drying, the sections were examined using a microscope (Eclipse 80i; Nikon) equipped with a B-2A filter set (excitation, 450–490 nm; diachronic mirror, 505 nm; long-pass filter, 520 nm).

The target of data set [8] is T2, Aβ plaques. The experiment in a line: Small-animal SPECT/CT in Tg2576 and wild-type mice. It counts as in vivo, Tg2576 transgenic mice. Particulars: average ± SD. On the procedure: Dynamic SPECT scans were performed on a dedicated small-animal SPECT scanner (FX3300, Gamma Medica-Ideas). Tg2576 transgenic mice (28 months, female, n = 3) and wild-type mice (28 months, female, n = 3) were used as an Alzheimer’s model and an age-matched control, respectively. Briefly, the animals were initially anesthetized with 2% isoflurane. When fully anesthetized, an animal was placed on the scanner bed, with a nose cone used to maintain anesthesia with 2% isoflurane throughout the experiment. [^123I]8 (20.5–26.5 MBq) in 10% aqueous EtOH solution containing 0.1% Tween80 was injected into a tail vein. Dynamic data were acquired over a period of 60 min after the injection, followed by the acquisition of CT data over a period of 5 min. The SPECT data were reconstructed using a 3-dimensional ordered subsets expectation maximization (3D OSEM) algorithm (5 iteration, 8 subsets). The SPECT scan time was sorted by a 30-s time frame in each 1-min interval (total, 60 frames for a total scan time of 60 min). […] For statistical analyses, regions of interest (ROIs) were manually placed over the frontal cortex (FR) and cerebellum (CE) on the summed SPECT images of [^123I]8 in Tg2576 (n = 3) and wild-type (n = 3) mice. Identification of anatomical structures was guided by the stereotaxic mouse brain atlas. […]

The structures appear in SMILES notation. Read-outs that look alike come from different tables or passages of the source.

The text below walks through data of PMC3772825, “Development of Novel ^123I-Labeled Pyridyl Benzofuran Derivatives for SPECT Imaging of β-Amyloid Plaques in Alzheimer’s Disease” (PLoS ONE, 2013).

T1 sequence (P05067 672-713 limits assumed): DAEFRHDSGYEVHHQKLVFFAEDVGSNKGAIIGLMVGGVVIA
T2 sequence (P05067 672-711 limits assumed): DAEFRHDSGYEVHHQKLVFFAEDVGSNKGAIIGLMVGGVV

On to `CNc1ccc(/C=C/c2ccc(OCCOCCOCC[18F])nc2)cc1` [[^18F]AV-45, (E)-4-(2-(6-(2-(2-(2-[^18F]fluoroethoxy)ethoxy)ethoxy)pyridin-3-yl)vinyl)-N-methylaniline], for which the brain2min/brain60 min ratio in data set [1] is 3.8.
Broadly, the Ki is a dissociation constant, usually derived from enzyme kinetics or from competition with a known ligand. `Nc1ccc(-c2cc3cc(I)ccc3o2)cn1` [Compound 7, 5-(5-Iodobenzofuran-2-yl)pyridin-2-amine] had a Ki in data set [2] of 10.3 ± 1.48 nM. The “time of peak brain uptake” value in data set [3] (i.v.) is 10 min. For the same molecule, the brain2min/brain60 min ratio in data set [3] (washout from the brain) is 1.30. The “in vitro autoradiography of AD brain sections” value in data set [4] is given as “nonspecific binding in white matter”.
Turning to `CNc1ccc(-c2cc3cc(I)ccc3o2)cn1` [Compound 8, 5-(5-Iodobenzofuran-2-yl)-N-methylpyridin-2-amine], the “radioactivity existing as intact form in mouse plasma” value in data set [5] came out at 77.4%. The same molecule showed a Ki in data set [2] of 2.94 ± 0.22 nM. For the same molecule, the “percent of the intact form in plasma after injection” value in data set [6] is listed as 20.7%. The “brain radioactivity at 60 min postinjection” value in data set [3] (i.v., 60 min) was found to be 1.30 %ID/g. The “time of peak brain uptake” value in data set [3] (i.v.) was 2 min. For the same molecule, the “ex vivo autoradiography, labeling of Aβ plaques” value in data set [7] was “extensive labeling of Aβ plaques”. The “mean FR/CE ratio (frontal cortex to cerebellum), SPECT” value worked out at 1.34±0.07 in data set [8] (Tg2576 mice (n = 3)) and 1.01±0.03 in data set [8] (wild-type mice (n = 3)).
In data set [2], `CN(C)c1ccc(-c2cc3cc(I)ccc3o2)cn1` [Compound 9, 5-(5-Iodobenzofuran-2-yl)-N,N-dimethylpyridin-2-amine] came in with a Ki of 2.36 ± 0.53 nM. In addition, the “time of peak brain uptake” value in data set [3] (i.v.) amounted to 10 min.
